Measurements taken from ChEMBL document CHEMBL1124916, “Neural networks applied to quantitative structure-activity relationship analysis” (1990).

Experiments:
Assay type in all cases: functional
Mus musculus [1] = organism: Mus musculus; experiment: Minimum Effective Dose (MED) which cause 40% increase in life span, after singular injection at log (1/C).
Mus musculus [2] = organism: Mus musculus; experiment: Optimal Dose (OD) which cause maximum increase in the life span, after chronic injection at log (1/C).
Mus musculus [3] = organism: Mus musculus; experiment: Optimal Dose (OD) which cause maximum increase in the life span, after singular injection at log (1/C).
Mus musculus [4] = organism: Mus musculus; experiment: Minimum Effective Dose (MED) which cause 40% increase in life span, after chronic injection at log (1/C).

SMILES: COC(COC(N)=O)C1=C(N2CC2)C(=O)C(C)=C(N2CC2)C1=O (centres undefined) [CARBOQUONE]
- MED (Mus musculus [1]): 5.81
- OD (Mus musculus [2]): 5.66
- OD (Mus musculus [3]): 5.03
- MED (Mus musculus [4]): 6.41

SMILES: O=C1C(CCO)=C(N2CC2)C(=O)C(CCO)=C1N1CC1
- MED (Mus musculus [1]): 5.93
- OD (Mus musculus [2]): 6.05
- OD (Mus musculus [3]): 5.6
- MED (Mus musculus [4]): 6.54

SMILES: CCC(OC)C1=C(N2CC2)C(=O)C(C)=C(N2CC2)C1=O (centres undefined)
- MED (Mus musculus [1]): 5.26
- OD (Mus musculus [2]): 5.33
- OD (Mus musculus [3]): 4.84
- MED (Mus musculus [4]): 5.68

SMILES: COCCC1=C(N2CC2)C(=O)C(C)=C(N2CC2)C1=O
- MED (Mus musculus [1]): 5.19
- OD (Mus musculus [2]): 5.42
- OD (Mus musculus [3]): 5.12
- MED (Mus musculus [4]): 5.57

SMILES: O=C1C=C(N2CC2)C(=O)C(N2CC2)=C1N1CC1 [TRIAZIQUONE]
- MED (Mus musculus [1]): 6.02
- OD (Mus musculus [2]): 6.19
- OD (Mus musculus [3]): 5.74
- MED (Mus musculus [4]): 6.45

SMILES: CC1=C(N2CC2)C(=O)C(CCOC(N)=O)=C(N2CC2)C1=O
- MED (Mus musculus [1]): 5.83
- OD (Mus musculus [2]): 5.75
- OD (Mus musculus [3]): 5.46
- MED (Mus musculus [4]): 6.21

SMILES: COCCC1=C(N2CC2)C(=O)C(CCOC)=C(N2CC2)C1=O
- MED (Mus musculus [1]): 5.18
- OD (Mus musculus [2]): 5.31
- OD (Mus musculus [3]): 4.71
- MED (Mus musculus [4]): 5.69

SMILES: CC1=C(N2CC2)C(=O)C(CCOC(=O)N(C)C)=C(N2CC2)C1=O
- MED (Mus musculus [1]): 5.09
- OD (Mus musculus [3]): 4.84

SMILES: CC1=C(N2CC2)C(=O)C(CCO)=C(N2CC2)C1=O
- MED (Mus musculus [1]): 5.89
- OD (Mus musculus [2]): 5.79
- OD (Mus musculus [3]): 5.25
- MED (Mus musculus [4]): 6.39

SMILES: CCC1=C(N2CC2)C(=O)C(CCOC(N)=O)=C(N2CC2)C1=O
- MED (Mus musculus [1]): 5.98
- OD (Mus musculus [2]): 5.48
- OD (Mus musculus [3]): 4.88
- MED (Mus musculus [4]): 6.25

SMILES: CC1=C(N2CC2)C(=O)C(Cc2ccccc2)=C(N2CC2)C1=O
- MED (Mus musculus [1]): 4.74
- OD (Mus musculus [2]): 4.69
- OD (Mus musculus [3]): 4.26
- MED (Mus musculus [4]): 4.85

SMILES: COC(CO)C1=C(N2CC2)C(=O)C(C)=C(N2CC2)C1=O (centres undefined)
- MED (Mus musculus [1]): 6.05
- OD (Mus musculus [2]): 5.75
- OD (Mus musculus [3]): 5.27
- MED (Mus musculus [4]): 6.9

SMILES: CC1=C(N2CC2)C(=O)C(CCCc2ccccc2)=C(N2CC2)C1=O
- MED (Mus musculus [1]): 3.93
- OD (Mus musculus [2]): 4.21
- OD (Mus musculus [3]): 3.6
- MED (Mus musculus [4]): 4.47

SMILES: CC1=C(N2CC2)C(=O)C(CC(C)OC(N)=O)=C(N2CC2)C1=O (centres undefined)
- MED (Mus musculus [1]): 5.86
- OD (Mus musculus [2]): 5.79
- OD (Mus musculus [3]): 5.18
- MED (Mus musculus [4]): 6.14

SMILES: COCCOC(COC(N)=O)C1=C(N2CC2)C(=O)C(C)=C(N2CC2)C1=O (centres undefined)
- MED (Mus musculus [1]): 5.45
- OD (Mus musculus [2]): 5.39
- OD (Mus musculus [3]): 4.96
- MED (Mus musculus [4]): 6.03

SMILES: CCC1=C(N2CC2)C(=O)C(CC)=C(N2CC2)C1=O
- MED (Mus musculus [1]): 4.94
- OD (Mus musculus [2]): 5.09
- OD (Mus musculus [3]): 4.79
- MED (Mus musculus [4]): 5.46

SMILES: CCCCCC1=C(N2CC2)C(=O)C(CCCCC)=C(N2CC2)C1=O
- MED (Mus musculus [1]): 4.07
- OD (Mus musculus [2]): 4.52
- OD (Mus musculus [3]): 3.62
- MED (Mus musculus [4]): 4.63

SMILES: CCC1=C(N2CC2)C(=O)C(C)=C(N2CC2)C1=O
- MED (Mus musculus [1]): 5.16
- OD (Mus musculus [2]): 5.37
- OD (Mus musculus [3]): 4.52
- MED (Mus musculus [4]): 5.86

SMILES: CC1=C(N2CC2)C(=O)C(C(C)COC(N)=O)=C(N2CC2)C1=O (centres undefined)
- MED (Mus musculus [1]): 5.93
- OD (Mus musculus [2]): 5.71
- OD (Mus musculus [3]): 5.31
- MED (Mus musculus [4]): 6.41

SMILES: CCOC(COC(N)=O)C1=C(N2CC2)C(=O)C(CC)=C(N2CC2)C1=O (centres undefined)
- MED (Mus musculus [1]): 5.4
- OD (Mus musculus [2]): 5.24
- OD (Mus musculus [3]): 4.64
- MED (Mus musculus [4]): 5.76

SMILES: CC1=C(N2CC2)C(=O)C(COc2ccccc2)=C(N2CC2)C1=O
- MED (Mus musculus [1]): 4.68
- OD (Mus musculus [2]): 4.71
- OD (Mus musculus [3]): 3.89
- MED (Mus musculus [4]): 5.15

SMILES: CC1=C(N2CC2)C(=O)C(C(C)C)=C(N2CC2)C1=O
- MED (Mus musculus [1]): 4.96
- OD (Mus musculus [2]): 5.21
- OD (Mus musculus [3]): 4.69
- MED (Mus musculus [4]): 5.6

SMILES: COC1=C(N2CC2)C(=O)C(OC)=C(N2CC2)C1=O
- MED (Mus musculus [1]): 4.81
- OD (Mus musculus [2]): 5.17
- OD (Mus musculus [3]): 4.32
- MED (Mus musculus [4]): 5.59

SMILES: CCCC1=C(N2CC2)C(=O)C(C(COC(N)=O)OC)=C(N2CC2)C1=O (centres undefined)
- MED (Mus musculus [1]): 5.01
- OD (Mus musculus [2]): 5.07
- OD (Mus musculus [3]): 4.64
- MED (Mus musculus [4]): 5.63

SMILES: CC(=O)C1=C(N2CC2)C(=O)C(C)=C(N2CC2)C1=O
- MED (Mus musculus [1]): 3.94
- OD (Mus musculus [3]): 3.48

SMILES: CCOC(COC(N)=O)C1=C(N2CC2)C(=O)C(C)=C(N2CC2)C1=O (centres undefined)
- MED (Mus musculus [1]): 5.53
- OD (Mus musculus [2]): 5.22
- OD (Mus musculus [3]): 4.62
- MED (Mus musculus [4]): 6.18

SMILES: CC(C)C1=C(N2CC2)C(=O)C(C(C)C)=C(N2CC2)C1=O
- MED (Mus musculus [1]): 4.36
- OD (Mus musculus [2]): 4.59
- OD (Mus musculus [3]): 4.14
- MED (Mus musculus [4]): 4.77

SMILES: CCCC1=C(N2CC2)C(=O)C(CCC)=C(N2CC2)C1=O
- MED (Mus musculus [1]): 4.32
- OD (Mus musculus [2]): 4.44
- OD (Mus musculus [3]): 4.14
- MED (Mus musculus [4]): 4.92

SMILES: CC(C)C1=C(N2CC2)C(=O)C=C(N2CC2)C1=O
- MED (Mus musculus [1]): 5.16
- OD (Mus musculus [2]): 5.37
- OD (Mus musculus [3]): 4.59
- MED (Mus musculus [4]): 5.68

SMILES: CC1=C(N2CC2)C(=O)C(N2CC2)=C(N2CC2)C1=O
- MED (Mus musculus [1]): 6.54
- OD (Mus musculus [2]): 6.21
- OD (Mus musculus [3]): 5.69
- MED (Mus musculus [4]): 6.77

SMILES: CCCC1=C(N2CC2)C(=O)C(CCOC(N)=O)=C(N2CC2)C1=O
- MED (Mus musculus [1]): 4.9
- OD (Mus musculus [2]): 5.23
- OD (Mus musculus [3]): 4.42
- MED (Mus musculus [4]): 5.68

SMILES: CCC1=C(N2CC2)C(=O)C(C(COC(N)=O)OC)=C(N2CC2)C1=O (centres undefined)
- MED (Mus musculus [1]): 5.62
- OD (Mus musculus [2]): 5.22
- OD (Mus musculus [3]): 4.92
- MED (Mus musculus [4]): 6.16

SMILES: CC1=C(N2CC2)C(=O)C(CCCOC(N)=O)=C(N2CC2)C1=O
- MED (Mus musculus [1]): 5.55
- OD (Mus musculus [2]): 5.93
- OD (Mus musculus [3]): 5.48
- MED (Mus musculus [4]): 6.18

SMILES: O=C1C(c2ccccc2)=C(N2CC2)C(=O)C(c2ccccc2)=C1N1CC1
- OD (Mus musculus [2]): 4.14
- OD (Mus musculus [3]): 3.53
- MED (Mus musculus [4]): 4.33

SMILES: CC1=C(N2CC2)C(=O)C(C)=C(N2CC2)C1=O
- MED (Mus musculus [1]): 5.36
- OD (Mus musculus [2]): 5.36
- OD (Mus musculus [3]): 4.79
- MED (Mus musculus [4]): 5.66

SMILES: CCC(COC(N)=O)C1=C(N2CC2)C(=O)C(C)=C(N2CC2)C1=O (centres undefined)
- MED (Mus musculus [1]): 6.03
- OD (Mus musculus [2]): 5.66
- OD (Mus musculus [3]): 5.2
- MED (Mus musculus [4]): 6.18
